Data taken from patent US20150250175A1, “PESTICIDALLY ACTIVE MIXTURES COMPRISING ANTHRANILAMIDE COMPOUNDS” (BASF SE, priority 2012, published 2015).

Tests used:
[1] = tested on: boll weevil (Anthonomus grandis); test: Boll weevil (Anthonomus grandis) control, insect diet with eggs, 24-well plates; details: 5 days
[2] = tested on: tobacco budworm (Heliothis virescens); test: Tobacco budworm (Heliothis virescens) control, insect diet with eggs, 96-well plates; details: 5 days
[3] = tested on: Mediterranean fruitfly (Ceratitis capitata); test: Mediterranean fruitfly (Ceratitis capitata) control, insect diet with eggs, 96-well plates; details: 5 days
[4] = tested on: green peach aphid (Myzus persicae); test: Green peach aphid (Myzus persicae) control, systemic, artificial diet under membrane, 96-well plates; format: in vivo; details: 3 days
Description: After application, 5-8 adult aphids were placed on the artificial membrane inside the microtiter plate wells. […] Aphid mortality and fecundity was then visually assessed.

[5] = tested on: vetch aphid (Megoura viciae); test: Vetch aphid (Megoura viciae) control, broad bean leaf disks in 24-well microtiter plates; format: in vivo; details: sprayed on leaf disks, aphid mortality and fecundity after 5 days
Description: After application, the leaf disks were air-dried and 5-8 adult aphids placed on the leaf disks inside the microtiter plate wells. […] Aphid mortality and fecundity was then visually assessed.

[6] = 0.08 + 0 ppm (mixing partner alone at 0.08 ppm)
[7] = 0 + 1 ppm (compound I alone at 1 ppm)
[8] = 0 + 0.2 ppm (compound I alone at 0.2 ppm)
[9] = 0 + 5 ppm (compound I alone at 5 ppm)
[10] = 0.0016 + 0 ppm (mixing partner alone at 0.0016 ppm)
[11] = 3.2 + 0 ppm (mixing partner alone at 3.2 ppm)

**Q.** `CC[S+]([O-])c1c(C#N)nn(-c2c(Cl)cc(C(F)(F)F)cc2Cl)c1N` (centres unmarked) [Ethiprol] was tested. Which “Average (Control %)” value ([1]; 2 + 0 ppm (mixing partner alone at 2 ppm)) did it give?
**A.** Its value is 50%.

**Q.** What about the “Average (Control %)” value [2, 6] of the same compound?
**A.** Its value is 0%.

**Q.** What about the “Average (Control %)” value ([3]; 10 + 0 ppm (mixing partner alone at 10 ppm)) of the same compound?
**A.** The value was 0%.

**Q.** Which results are given for `CCS(CC)=NC(=O)c1cc(Cl)cc(C)c1NC(=O)c1cc(C(F)(F)F)nn1-c1ncccc1Cl` [Compound I-11, 2-(3-chloro-2-pyridyl)-N-[2-methyl-4-chloro-6-[(diethyl-λ^4-sulfanylidene)carbamoyl]phenyl]-5-(trifluoromethyl)pyrazole-3-carboxamide]?
**A.** Average (Control %) [4, 7]: 0%; Average (Control %) [1, 7]: 0%; Average (Control %) [2, 8]: 0%; Average (Control %) ([5]; Spirotetramat + I-11 at 0 + 1 ppm (I-11 alone, 1 ppm)): 0%

**Q.** Which “Average (Control %)” value [1, 6] does the source give for Spinosad here?
**A.** The value was 0%.

**Q.** And the “Average (Control %)” value [2, 6]?
**A.** Its value is 0%.

**Q.** And the “Average (Control %)” value ([2]; 0.4 + 0 ppm (mixing partner alone at 0.4 ppm))?
**A.** The value was 0%.

**Q.** What about the “Average (Control %)” value [3, 6] of the same compound?
**A.** The value was 0%.

**Q.** Which results are given for `CCS(CC)=NC(=O)c1cc(Cl)cc(Cl)c1NC(=O)c1cc(C(F)(F)F)nn1-c1ncccc1Cl` [Compound I-16, 2-(3-chloro-2-pyridyl)-N-[2,4-dichloro-6-[(diethyl-λ^4-sulfanylidene)carbamoyl]phenyl]-5-(trifluoromethyl)pyrazole-3-carboxamide]?
**A.** Average (Control %) [4, 7]: 25%; Average (Control %) [2, 7]: 0%; Average (Control %) [3, 9]: 0%

**Q.** `N#C/N=C1\SCCN1Cc1ccc(Cl)nc1` [Thiacloprid] was tested. Which “Average (Control %)” value [4, 10] did it give?
**A.** The value was 50%.

**Q.** What about the “Average (Control %)” value [1, 10] of the same compound?
**A.** Its value is 0%.

**Q.** Which results are given for `CCOC(=O)OC1=C(c2cc(C)ccc2C)C(=O)N[C@]12CC[C@@H](OC)CC2` [Spirotetramat, spirotetramat, reference compound]?
**A.** Average (Control %) [4, 11]: 0%; Average (Control %) ([4]; 80 + 0 ppm (mixing partner alone at 80 ppm)): 50%; Average (Control %) [2, 11]: 0%; Average (Control %) ([5]; Spirotetramat + I-11 at 80 + 0 ppm (Spirotetramat alone, 80 ppm)): 25%

**Q.** With `Cc1cc(Cl)cc(C(=O)N=S(C(C)C)C(C)C)c1NC(=O)c1cc(C(F)(F)F)nn1-c1ncccc1Cl` [Compound I-21, 2-(3-chloro-2-pyridyl)-N-[2-methyl-4-chloro-6-[(bis-2-propyl-λ^4-sulfanylidene)carbamoyl]phenyl]-5-(trifluoromethyl)pyrazole-3-carboxamide] as the compound, how does the “Average (Control %)” value [1, 9] read?
**A.** The value was 0%.

**Q.** What about the “Average (Control %)” value [2, 8] of the same compound?
**A.** Its value is 0%.

**Q.** And the “Average (Control %)” value [2, 7]?
**A.** The value was 50%.

**Q.** What about the “Average (Control %)” value [3, 9] of the same compound?
**A.** Its value is 0%.

**Q.** With `CN/C(=N\[N+](=O)[O-])NCc1cnc(Cl)s1` [Clothianidin] as the compound, how does the “Average (Control %)” value [2, 6] read?
**A.** The value was 0%.

**Q.** What about the “Average (Control %)” value ([3]; 1 + 0 ppm (mixing partner alone at 1 ppm)) of the same compound?
**A.** Its value is 0%.
